Experimental data published in patent publication US20040053950A1, “Antimalarial activities and therapeutic properties of febrifugine analogues” (priority 2002, published 2004).
Converted amounts (≈) assume the structure as drawn. Like-named read-outs stand apart in the source and are kept apart here.

Legend:
[1] = test system: P. falciparum chloroquine-resistant W2-strain; test: In vitro drug susceptibility assay ([3H]-hypoxanthine incorporation), W2 strain; type: cell-based; settings: Plasmodium falciparum
Method: (§1) Potential resistance to halofuginone derivatives of P. falciparum isolates were tested. Isolates of P. falciparum stored in liquid nitrogen are thawed and cultivated in RPMI 1640 media with 6% human erythrocytes supplemented with 10% of human serum. The parasite cultures are maintained in an atmosphere of 5% CO2, 5% O2 and 90% N2 at 37° C. for the assay. The semi-automated micro-dilution technique of Desjardins is used to assess the sensitivity of the parasites to febrifugine and halofuginone derivatives. The incorporation of [3H]-hypoxanthine into the parasites is measured as a function of compound concentration to determine EC50 values.

Neuronal cells (NG108) = test: In vitro drug toxicity assay, neuronal cells; type: cell-based; settings: NG-108
[2] = test system: P. falciparum chloroquine-sensitive D6-strain; test: In vitro drug susceptibility assay ([3H]-hypoxanthine incorporation), D6 strain; type: cell-based; settings: Plasmodium falciparum
Method: as §1

Plasmodium lophurae = settings: duck models, purified febrifugine; cited from earlier work
Macrophage cells (J774) = test: In vitro drug toxicity assay, macrophage cells; type: cell-based; settings: Mus musculus
malarial parasites = test: In vitro antimalarial activity, parasites in culture (strain not stated); type: cell-based
Method: as §1

Plasmodium berghei = test: Modified Thompson test in P. berghei-infected mice; type: in vivo; settings: for parasitemia of the infected mice: 10 mg/kg once/day for three days
Method: An active animal use protocol mouse models are used to test the above compounds to determine antimalarial activity by using modified Thompson Test. In this test, IRC mice are inoculated intraperitoneally with P. berghei-infected erythrocytes from donor mice that are anesthetized and exsanguinated via cardiac puncture to collect infected blood. The pooled blood is then diluted with normal mouse serum to a concentration of 1×10^6 P. berghei erythrocytes per inoculum (0.1 ml). The groups of testing and control mice are inoculated with the infected blood on day 0 and then treated with various dosages of halofuginone or the derivatives in aqueous-based vehicles on day 3 through the day required. The drug is administered orally (PO), subcutaneously (SC), intramuscularly (IM), and/or intraperitoneally (IP) up to three times a day, based on the requirements. Blood films and body weights are taken on the third and sixth days post-infection, then at weekly intervals through day 60. Films are Giemsa-stained, examined using light microscopy for the determination of parasitemia. All mice with negative smears at 60 days are considered cured. The data from the in vivo testing verifies the antimalarial efficacy of febrifugine, halofuginone and the halofuginone derivatives in mice and provides new properties of halofuginone and halofuginone derivatives against malarial parasites in vivo.
The modified Thompson test was conducted in eleven groups of mice with eight mice per group. The tested mice were inoculated with P. Berghei on day zero and treated with febrifugines on days three with one oral or subcutaneous treatment per day for three days. […] The parasitemia of the infected mice was reduced to less than 3% with oral administration of 10 mg/kg febrifugines one/day for three days, while mice with the subcutaneous treatment had 30% of parasitemia at the same does as shown in FIGS. 3(a) through 3(d).
Eighty-eight ICR mice were inoculated with P. berghei, and separated into nine groups. Eight of the infected groups were treated with […] different doses of halofuginone twice a day for eight days. One group was treated with physiological saline as control. […] Two mice were cured at the doses of 0.25 and 0.5 mg/kg and survived 60 days after the treatment. […] The parasites were all cleared at the does of 1 mg/kg on day six.

PfMRK = biological target: T1, PfMRK (Plasmodium falciparum, UniProt P90584); test: Kinase assay, recombinant plasmodial cyclin-dependent kinase; type: biochemical
T1 sequence (P90584 1-324): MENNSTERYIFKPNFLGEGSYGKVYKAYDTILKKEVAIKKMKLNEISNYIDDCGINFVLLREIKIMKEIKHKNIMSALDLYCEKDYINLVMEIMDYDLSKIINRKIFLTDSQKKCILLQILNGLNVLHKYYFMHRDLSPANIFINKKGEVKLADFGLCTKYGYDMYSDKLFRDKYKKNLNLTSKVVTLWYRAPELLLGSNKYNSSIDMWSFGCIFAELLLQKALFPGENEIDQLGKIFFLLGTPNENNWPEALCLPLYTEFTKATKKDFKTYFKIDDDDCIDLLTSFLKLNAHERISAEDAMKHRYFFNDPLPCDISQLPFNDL
From the text: Halofuginone is a known to be a specific collagen gene transcription inhibitor. However, inhibition to other target enzymes by febrifugine, halofuginone and halofuginone derivatives in malarial parasites remain unknown. Quinazoline analogues (the family to which these compounds belong) are known to target dihydrofolate reductase, mammalian EGFR kinase, the stress-activated protein kinase and cyclin dependent kinase. A series of enzymatic assays are used to detect whether the derivatives have inhibition against these enzymes. DHFR assay is conducted using a well-characterized spectrophotometric method. Kinase assays are conducted using radioisotope-labeling technique. The responses of the recombinant kinases to the derivatives are measured in a scintillation b-counter and illustrated using SDS-page gel and PhosphoImager. These tests provide information on the compounds' abilities to interfere with the functions of these enzymes and alter the parasite physiological pathways on a molecular basis.

[3] = Toxic effects in mice (observation and necropsy analysis); type: in vivo; settings: for diarrhea / gastrointestinal toxic effects: mice
[4] = Table 4, W2, read-out: IC50 P. falciparum (W2)
[5] = Table 4, D6, read-out: IC50 P. falciparum (D6)
[6] = Table 1, W2 strain, read-out: IC50 against P. falciparum W2 strain
[7] = Table 1, D6 strain, read-out: IC50 against P. falciparum D6 strain
[8] = recombinant kinase, dash = no inhibition, read-out: PFMRK (IC50:μM)

IC50 [1, 4] | IC50 [2, 5] | IC50 [1, 6] | IC50 [2, 7] | Molecule | IC50 (Neuronal cells (NG108); Table 4, NG108) | IC50 (Macrophage cells (J774); Table 4, J774) | IC50 (Neuronal cells (NG108); Table 2, NG108) | IC50 (Macrophage cells (J774); Table 2, J774) | also measured
0.129 µg/mL (≈ 0.292 µM) | 0.0897 µg/mL (≈ 0.202 µM) | 0.129 µg/mL (≈ 0.292 µM) | 0.0897 µg/mL (≈ 0.202 µM) | C=CCOC(=O)N1CCCC(OC)[C@H]1CC(=O)Cn1cnc2cc3c(cc2c1=O)OCO3 (stereo partly shown) [WR089904] | 53.3 µg/mL (≈ 120 µM) | 1.08 µg/mL (≈ 2.43 µM) | 63 µg/mL (≈ 142 µM) | 29.2 µg/mL (≈ 65.7 µM) | –
0.0234 µg/mL (≈ 0.0651 µM) | 0.0189 µg/mL (≈ 0.0527 µM) | 0.0256 µg/mL (≈ 0.0713 µM) | 0.0181 µg/mL (≈ 0.0504 µM) | COC1CCCN[C@@H]1CC(=O)Cn1cnc2cc3c(cc2c1=O)OCO3 (stereo partly shown) [WR090212] | 24.8 µg/mL (≈ 69.1 µM) | 2.97 µg/mL (≈ 8.27 µM) | 26 µg/mL (≈ 72.3 µM) | 3.54 µg/mL (≈ 9.85 µM) | –
0.00293 µg/mL (≈ 0.00848 µM) | 0.00238 µg/mL (≈ 0.00689 µM) | – | – | O=C(C[C@H]1NCCCC1O)Cn1cnc2cc3c(cc2c1=O)OCO3 (stereo partly shown) [WR092103] | 6.86 µg/mL (≈ 19.9 µM) | 3.61 µg/mL (≈ 10.4 µM) | – | – | –
0.00146 µg/mL (≈ 0.00435 µM) | 0.00175 µg/mL (≈ 0.00521 µM) | 0.00163 µg/mL (≈ 0.00484 µM) | 0.00123 µg/mL (≈ 0.00366 µM) | O=C(C[C@H]1NCCCC1O)Cn1cnc2cccc(Cl)c2c1=O (stereo partly shown) [WR139672] | 1.16 µg/mL (≈ 3.45 µM) | 0.392 µg/mL (≈ 1.17 µM) | 1.31 µg/mL (≈ 3.91 µM) | 0.069 µg/mL (≈ 0.205 µM) | –
0.0151 µg/mL (≈ 0.0419 µM) | 0.0129 µg/mL (≈ 0.036 µM) | 0.0141 µg/mL (≈ 0.0391 µM) | 0.0105 µg/mL (≈ 0.0291 µM) | COC1CCCN[C@@H]1CC(=O)Cn1cnc2ccc3c(c2c1=O)OCO3 (stereo partly shown) [WR140085] | 15.5 µg/mL (≈ 43.1 µM) | 0.425 µg/mL (≈ 1.18 µM) | 10.8 µg/mL (≈ 30.1 µM) | 3.29 µg/mL (≈ 9.14 µM) | –
0.00098 µg/mL (≈ 0.00242 µM) | 0.00082 µg/mL (≈ 0.00203 µM) | 0.00129 µg/mL (≈ 0.00319 µM) | 0.000962 µg/mL (≈ 0.00238 µM) | O=C(C[C@H]1NCCCC1O)Cn1cnc2c(Cl)c(Cl)c(Cl)cc2c1=O (stereo partly shown) [WR222048] | 0.879 µg/mL (≈ 2.17 µM) | 0.499 µg/mL (≈ 1.23 µM) | 1.1 µg/mL (≈ 2.71 µM) | 0.11 µg/mL (≈ 0.272 µM) | –

More lines, now with the values behind:

Molecule | IC50 [1, 4] | IC50 [2, 5] | IC50 [1, 6] | IC50 [2, 7] | IC50 (Neuronal cells (NG108); Table 4, NG108) | IC50 (Macrophage cells (J774); Table 4, J774) | IC50 (Neuronal cells (NG108); Table 2, NG108) | IC50 (Macrophage cells (J774); Table 2, J774) | also measured
O=C(C[C@H]1NCCCC1O)Cn1cnc2ccccc2c1=O (stereo partly drawn) [Febrifugine, (2′S,3′R)-3-[3-(3-hydroxy-2-piperidyl)acetonyl]-4(3H)quinazolinone] | – | – | – | – | 0.0635 µg/mL (≈ 0.211 µM) | 0.081 µg/mL (≈ 0.269 µM) | – | – | IC50 ([1]; W2, read-out: IC50 P. falciparum (W2)): 0.00053 µg/mL (≈ 0.00176 µM); IC50 ([2]; D6, read-out: IC50 P. falciparum (D6)): 0.00034 µg/mL (≈ 0.00113 µM); antimalarial activity relative to quinine (Plasmodium lophurae): 100 times as active as quinine; in vitro antimalarial activity relative to chloroquine and artemisinin (malarial parasites): ten times stronger than chloroquine and artemisinin
O=C(CC1NCCCC1O)Cn1cnc2cc(Br)c(Cl)cc2c1=O (stereo not shown) [Halofuginone] | 0.00015 µg/mL (≈ 0.000362 µM) | 0.00012 µg/mL (≈ 0.000289 µM) | – | – | 0.177 µg/mL (≈ 0.427 µM) | 0.132 µg/mL (≈ 0.319 µM) | – | – | lethal toxicity in infected mice (Plasmodium berghei; dose higher than 1 mg/kg twice a day): killed the tested mice before the parasites; mouse survival time (Plasmodium berghei; doses of 0.125, 0.25 and 0.5 mg/kg twice a day for eight days, ICR mice): extended the mouse survival time; parasitemia of the infected mice on day six (Plasmodium berghei; doses of 0.25 and 0.5 mg/kg twice a day): below 0.5%; mice cured (survived 60 days after the treatment) (Plasmodium berghei; doses of 0.25 and 0.5 mg/kg twice a day for eight days): Two; rank of in vitro potency against malarial parasites among febrifugine derivatives (malarial parasites): the most potent analog
O=C(C[C@@H]1CCCCN1)Cn1cnc2ccccc2c1=O [WR059421] | 0.0237 µg/mL (≈ 0.083 µM) | 0.0174 µg/mL (≈ 0.0611 µM) | 0.026 µg/mL (≈ 0.0912 µM) | 0.0171 µg/mL (≈ 0.06 µM) | 8.93 µg/mL (≈ 31.3 µM) | 0.492 µg/mL (≈ 1.72 µM) | 5.38 µg/mL (≈ 18.9 µM) | 0.236 µg/mL (≈ 0.827 µM) | IC50 (PfMRK; [8]): ~27 µM
O=C(C[C@H]1CCCCN1C(=O)c1ccccc1)Cn1cnc2ccccc2c1=O [WR059424] | 0.284 µg/mL (≈ 0.728 µM) | 0.291 µg/mL (≈ 0.748 µM) | – | – | 36.8 µg/mL (≈ 94.5 µM) | 3.01 µg/mL (≈ 7.73 µM) | – | – | –
C=CCOC(=O)N1CCCC(OCC)[C@H]1CC(=O)Cn1cnc2ccccc2c1=O (stereo partly shown) [WR088442] | 0.245 µg/mL (≈ 0.593 µM) | 0.193 µg/mL (≈ 0.466 µM) | 0.288 µg/mL (≈ 0.696 µM) | 0.203 µg/mL (≈ 0.491 µM) | 35.1 µg/mL (≈ 84.8 µM) | 7.09 µg/mL (≈ 17.1 µM) | 21.5 µg/mL (≈ 52 µM) | 9.1 µg/mL (≈ 22 µM) | IC50 (PfMRK; [8]): ~25 µM
CCOC1CCCN[C@@H]1CC(=O)Cn1cnc2cc(Br)c(Cl)cc2c1=O (stereo partly shown) [WR221232] | 0.0115 µg/mL (≈ 0.0261 µM) | 0.00945 µg/mL (≈ 0.0213 µM) | 0.0172 µg/mL (≈ 0.0388 µM) | 0.0111 µg/mL (≈ 0.0251 µM) | 8 µg/mL (≈ 18.1 µM) | 0.613 µg/mL (≈ 1.38 µM) | 5.99 µg/mL (≈ 13.5 µM) | 0.287 µg/mL (≈ 0.647 µM) | IC50 (PfMRK): ~113 µM
(2′S,3′R)-3-[3-(3-hydroxy-2-piperidyl)acetonyl]-4(3H)quinazolinone [Febrifugine] | – | – | – | – | – | – | – | – | toxic effects (nausea and vomiting) in mice ([3]; antimalarial dosages): do not appear to have such toxic effects; diarrhea ([3]; effective treatment doses): did not induce diarrhea; gastrointestinal toxic effects ([3]; oral treatment, toxic doses): severe gastrointestinal lesions and hemorrhage; gastrointestinal toxic effects ([3]; subcutaneous treatment, toxic doses): did not induce GI tract injury; vomiting ([3]; tested mice): No vomiting has been observed; diarrhea ([3]; toxic doses): caused diarrhea; necropsy findings ([3]; toxic doses, mouse killed by drug): pale liver and intestine lesions and hemorrhage; efficacy of oral versus subcutaneous treatment (Plasmodium berghei; one treatment per day for three days, mice): more efficacious; parasitemia of the infected mice (Plasmodium berghei; oral administration, mice): less than 3%; parasitemia of the infected mice (Plasmodium berghei; subcutaneous treatment, mice): 30%
